According to article PMC12655351, “Synthesis and Anticancer Activity Evaluation of New 5-((5-Nitrofuran-2-yl)allylidene)-2-thioxo-4-thiazolidinones” (Pharmaceuticals, 2025):

How the values were obtained:
Ovarian cancer [1] = assay: cells; conditions: Homo sapiens; for GI50: read-out: MG_MID GI50; for CC50: read-out: MG_MID LC50
Ovarian cancer [2] = conditions: Ovarian cancer subpanel
ACHN = assay: NCI-60 SRB screen; conditions: 48 h; for GI50 / CC50: Homo sapiens; for CC50: read-out: LC50, ACHN, 48 h
Renal Cancer = Renal Cancer subpanel
HCT-116 = assay: MTT assay; format: cell-based; conditions: Homo sapiens; HCT-116, 24 h of treatment
Summary of the method: (§1)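 MTT read-out (570 nm) following 24 h treatment spanning 0.625–40.0 μM.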

SH SY5Y = assay: MTT assay; format: cell-based; conditions: Homo sapiens, 24 h of treatment
Summary of the method: as §1

MDA-MB-231 = assay: MTT assay; format: cell-based; conditions: Homo sapiens; MDA-MB-231, 24 h of treatment
Summary of the method: as §1

OVCAR-8 [3] = conditions: OVCAR-8, 48 h
[4] = system: Non-small cell lung cancer; conditions: Non-small cell lung cancer subpanel
MDA-MB-435 = assay: cells; conditions: Homo sapiens, MDA-MB-435, 48 h; for CC50: read-out: LC50, MDA-MB-435, 48 h
[5] = system: panel of 60 cancer cell lines; conditions: for Positive cytostatic effect (ratio of cell lines with GP from 0 to 50 to total number) / Mean growth / Range of growth: 10 μM, 48 h; for Mean growth / Range of growth: one dose; for MG_MID TGI: full panel (last line of Table S2)
HS 578T = conditions: 48 h
U251 = assay: NCI-60 SRB screen; conditions: for GI50 / CC50: Homo sapiens, U-251, 48 h; for GI50 / TGI: U251, 48 h; for CC50: read-out: LC50, U251, 48 h
OVCAR-8 [6] = assay: cells; conditions: Homo sapiens, OVCAR-8, 48 h; for CC50: read-out: LC50, OVCAR-8, 48 h
Prostate Cancer [7] = conditions: Prostate Cancer subpanel
SK-MEL-5 = conditions: for TGI: SK-MEL-5, 48 h
K-562 = conditions: K-562, 48 h
PC-3 = conditions: PC-3, 48 h
T-47D [8] = assay: cells; conditions: Homo sapiens, T47D, 48 h; for GI50: T-47D; for CC50: read-out: LC50
DU-145 = conditions: DU-145, 48 h
NCI-H322M = assay: NCI-60 SRB screen; conditions: 48 h; for GI50 / CC50: Homo sapiens; for CC50: read-out: LC50, NCI-H322M, 48 h
LOX IMVI [9] = conditions: LOX IMVI, 48 h
Prostate Cancer [10] = assay: cells; conditions: Homo sapiens, read-out: MG_MID GI50
LOX IMVI [11] = assay: cells; conditions: Homo sapiens, 48 h; for CC50: read-out: LC50, LOX IMVI, 48 h
SK-MEL-2 = assay: NCI-60 SRB screen; conditions: SK-MEL-2, 48 h; for GI50 / CC50: Homo sapiens; for CC50: read-out: LC50, SK-MEL-2, 48 h
TK-10 = conditions: TK-10, 48 h
UO-31 = conditions: UO-31, 48 h
RPMI-8226 = assay: cells; conditions: Homo sapiens, RPMI-8226, 48 h; for CC50: read-out: LC50
MCF7 = assay: NCI-60 SRB screen; conditions: MCF7, 48 h; for GI50: Homo sapiens
T-47D [12] = conditions: 48 h
Breast cancer = Breast cancer subpanel

## O=C(O)C(c1ccccc1)N1C(=O)/C(=C/C=C/c2ccc([N+](=O)[O-])o2)SC1=S (stereo not shown) [9b, 2-((Z)-5-((E)-3-(5-Nitrofuran-2-yl)allylidene)-4-oxo-2-thioxothiazolidin-3-yl)-2-phenylacetic acid]
Ovarian cancer [1]
  GI50: 13 µM
  CC50: 60.3 µM
Ovarian cancer [2]
  MG_MID TGI: 27.9 µM
ACHN
  TGI: 21.4 µM
  GI50: 9.25 µM
  CC50: 47.2 µM
Renal Cancer
  MG_MID TGI: 22.1 µM
HCT-116
  IC50: 11.7 µM
SH SY5Y
  IC50: 20.1 µM
MDA-MB-231
  IC50: 36.7 µM
OVCAR-8 [3]
  TGI: 25.5 µM
[4]
  MG_MID TGI: 31.8 µM
MDA-MB-435
  GI50: 3.04 µM
  CC50: 40.6 µM
[5]
  Positive cytostatic effect (ratio of cell lines with GP from 0 to 50 to total number): 28/55
  Mean growth: 26.29%
  Range of growth: -88.21 to 175.37%
  MG_MID TGI: 24.1 µM
HS 578T
  TGI: 35.0 µM
U251
  GI50: 4.11 µM
  CC50: 49.8 µM
  TGI: 16.5 µM
OVCAR-8 [6]
  GI50: 11.1 µM
  CC50: 58.5 µM
Prostate Cancer [7]
  MG_MID TGI: 26.8 µM
SK-MEL-5
  TGI: 13.7 µM
K-562
  TGI: 19.3 µM
PC-3
  TGI: 29.9 µM
T-47D [8]
  GI50: 11.1 µM
  CC50: > 100 µM
DU-145
  TGI: 23.7 µM
NCI-H322M
  TGI: 26.6 µM
  GI50: 13.4 µM
  CC50: 52.5 µM
LOX IMVI [9]
  TGI: 25.9 µM
Prostate Cancer [10]
  GI50: 12.5 µM
LOX IMVI [11]
  GI50: 10.8 µM
  CC50: 62.3 µM
SK-MEL-2
  GI50: 5.64 µM
  CC50: 49.2 µM
  TGI: 19.7 µM
TK-10
  TGI: 30.0 µM
UO-31
  TGI: 23.4 µM
RPMI-8226
  GI50: 3.19 µM
  CC50: > 100 µM
MCF7
  GI50: 3.67 µM
  TGI: 16.5 µM
T-47D [12]
  TGI: 39.4 µM
Breast cancer
  MG_MID TGI: 22.2 µM

## CCCC(C(=O)O)N1C(=O)/C(=C/C=C/c2ccc([N+](=O)[O-])o2)SC1=S (stereo not shown) [4b, 2-((Z)-5-((E)-3-(5-Nitrofuran-2-yl)allylidene)-4-oxo-2-thioxothiazolidin-3-yl)pentanoic acid]
Ovarian cancer [1]
  GI50: 3.12 µM
  CC50: 23 µM
Ovarian cancer [2]
  MG_MID TGI: 8.71 µM
ACHN
  TGI: 3.44 µM
  GI50: 1.72 µM
  CC50: 6.87 µM
Renal Cancer
  MG_MID TGI: 4.25 µM
HCT-116
  IC50: 7.89 µM
SH SY5Y
  IC50: 16.3 µM
MDA-MB-231
  IC50: 17.5 µM
OVCAR-8 [3]
  TGI: 4.64 µM
[4]
  MG_MID TGI: 6.56 µM
MDA-MB-435
  GI50: 1.62 µM
  CC50: 6.77 µM
[5]
  Positive cytostatic effect (ratio of cell lines with GP from 0 to 50 to total number): 4/55
  Mean growth: 36.52%
  MG_MID TGI: 5.85 µM
HS 578T
  TGI: 10.1 µM
U251
  GI50: 1.69 µM
  CC50: 6.7 µM
  TGI: 3.37 µM
OVCAR-8 [6]
  GI50: 1.98 µM
  CC50: 13 µM
Prostate Cancer [7]
  MG_MID TGI: 8.56 µM
SK-MEL-5
  TGI: 2.79 µM
K-562
  TGI: 14.5 µM
PC-3
  TGI: 10.7 µM
T-47D [8]
  GI50: 2.2 µM
  CC50: > 100 µM
DU-145
  TGI: 6.42 µM
NCI-H322M
  TGI: 14.2 µM
  GI50: 3.72 µM
  CC50: 38.1 µM
LOX IMVI [9]
  TGI: 3.12 µM
Prostate Cancer [10]
  GI50: 2.65 µM
LOX IMVI [11]
  GI50: 1.59 µM
  CC50: 6.11 µM
SK-MEL-2
  GI50: 1.53 µM
  CC50: 5.89 µM
  TGI: 3.00 µM
TK-10
  TGI: 8.16 µM
UO-31
  TGI: 3.33 µM
RPMI-8226
  GI50: 1.79 µM
  CC50: > 100 µM
MCF7
  GI50: 1.6 µM
  TGI: 3.70 µM
T-47D [12]
  TGI: 5.49 µM
Breast cancer
  MG_MID TGI: 5.00 µM

## CCCCC(C(=O)O)N1C(=O)/C(=C/C=C/c2ccc([N+](=O)[O-])o2)SC1=S (stereo not shown) [6b, 2-((Z)-5-((E)-3-(5-nitrofuran-2-yl)allylidene)-4-oxo-2-thioxothiazolidin-3-yl)hexanoic acid]
Ovarian cancer [1]
  GI50: 3.32 µM
  CC50: 25.7 µM
Ovarian cancer [2]
  MG_MID TGI: 9.10 µM
ACHN
  TGI: 3.48 µM
  GI50: 1.88 µM
  CC50: 6.47 µM
Renal Cancer
  MG_MID TGI: 5.37 µM
HCT-116
  IC50: 17.6 µM
SH SY5Y
  IC50: 8.39 µM
MDA-MB-231
  IC50: 10.3 µM
OVCAR-8 [3]
  TGI: 4.86 µM
[4]
  MG_MID TGI: 6.45 µM
MDA-MB-435
  GI50: 1.81 µM
  CC50: 6.61 µM
[5]
  Positive cytostatic effect (ratio of cell lines with GP from 0 to 50 to total number): 6/55
  Range of growth: -99.30 to 46.65%
  MG_MID TGI: 6.27 µM
HS 578T
  TGI: 27.4 µM
U251
  GI50: 1.91 µM
  CC50: 11 µM
  TGI: 4.42 µM
OVCAR-8 [6]
  GI50: 2.12 µM
  CC50: 13.8 µM
Prostate Cancer [7]
  MG_MID TGI: 10.8 µM
SK-MEL-5; SK-MEL-5, 10 μM, 48 h
  growth GP: -99.30%
SK-MEL-5
  TGI: 2.77 µM
K-562
  TGI: 10.5 µM
PC-3
  TGI: 11.3 µM
T-47D [8]
  GI50: 1.75 µM
DU-145
  TGI: 10.2 µM
NCI-H322M
  TGI: 15.0 µM
  GI50: 3.84 µM
  CC50: 43.9 µM
LOX IMVI [9]
  TGI: 3.34 µM
Prostate Cancer [10]
  GI50: 3.29 µM
LOX IMVI [11]
  GI50: 1.76 µM
  CC50: 6.37 µM
SK-MEL-2
  GI50: 1.7 µM
  CC50: 6.12 µM
  TGI: 3.22 µM
TK-10
  TGI: 8.15 µM
UO-31
  TGI: 3.29 µM
RPMI-8226
  GI50: 1.78 µM
  CC50: > 100 µM
MCF7
  GI50: 1.64 µM
  TGI: 4.11 µM
T-47D [12]
  TGI: 4.03 µM
Breast cancer
  MG_MID TGI: 7.71 µM
